From patent publication US20100093748A1, “SUBSTITUTED PIPERIDINES HAVING PROTEIN KINASE INHIBITING ACTIVITY” (ASTEX THERAPEUTICS LIMITED, priority 2006, published 2010)

System: phosphorylation of Serine-9 residue in Glycogen Synthase Kinase-3beta as surrogate marker of cellular PKB (Akt) activity
Test: In vitro MDA-MB-468 human breast adenocarcinoma GSK-3 phosphorylation assay
Assay type: cell-based
Conditions: MDA-MB-468 cells, 2 hours compound incubation, mean IC50, read-out: Cell pGSK3b IC50
Source text: This assay determines the ability of test compounds to inhibit phosphorylation of Serine-9 residue in Glycogen Synthase Kinase-3beta (GSK-313) as a surrogate marker of cellular PKB (Akt) activity, as assessed using Acumen Explorer Fluorescent Plate-Reader technology. A MDA-MB-468 human breast adenocarcinoma cell line (LGC Promochem, Teddington, Middlesex, UK, Catalogue No. HTB-132) was routinely maintained in Dulbecco's modified Eagle's growth medium (DMEM; Invitrogen Limited, Paisley, UK Catalogue No. 11966-025) containing 10% heat-inactivated foetal calf serum (FCS; Sigma, Poole, Dorset, UK, Catalogue No. F0392) and 1% L-glutamine (Gibco, Catalogue No. 25030-024) at 37° C. with 5% CO2 up to a confluency of 70-90%.
For the phosphorylation assay, the cells were detached from the culture flask using Trypsin-EDTA (Invitrogen Limited, Catalogue No. 25300-062) and seeded into the wells of a black transparent-bottom Corning Costar Polystyrene 96 well plate (Fisher Scientific UK, Loughborough, Leicestershire, UK; Catalogue No. 3904 and DPS-130-020K) at a density of 5000 cells per well in 100 μl of complete growth media. The cells were incubated overnight at 37° C. with 5% CO2 to allow them to adhere.
On day 2, the cells were treated with test compounds and incubated for 2 hours at 37° C. with 5% CO2. Test compounds were prepared as 10mM stock solutions in DMSO and dosed directly to required concentration into test wells using non-contact (acoustic dispensing of multiple 2.5 nl droplets directly into assay wells) ECHO dosing technology (Labcyte Inc Sunnyvale, Calif., USA). Each plate contained control wells without test compound.
20 μl of fixing buffer (Phosphate Buffered Saline (PBS) containing 10% formaldehyde; Sigma; Catalogue No. F1635) was then added to each well to give a final well concentration 1.6%. Plates were then incubated for 30 minutes at room temperature prior to the fixative being removed. Each well was washed once with 250 μl of PBS and then 50 μl PBS added to each well. PBS was then aspirated and cells permeabilised and blocked by incubating each well with 50 μl of permeabilisation/blocking buffer (PBS containing 0.5% Tween 20 (Sigma; Catalogue No. P5927) and 5% Marvel Milk Powder (Andrews Pharmacy Ltd, Macclesfield, Cheshire, UK; Catalogue No. APC100199)) for 1 hour at room temperature prior to staining.
Following removal of Perm/Block buffer, 50 μl of primary anti-phospho-GSK-3β antibody (Cell Signalling Technology (New England Biolabs (Uk) Ltd.), Hitchin, Hertfordshire, UK; Catalogue No.9336 diluted 1:400 in Blocking buffer (PBS containing 5% Marvel and 0.05% Tween/Polysorbate 20) was added to each well and incubated overnight at 4° C.
Each well was washed three times in 250 μl of wash buffer (PBS containing 0.05% polysorbate 20), and cells incubated for 1 hour at room temperature with 50 μl of secondary fluorescently-labelled anti-rabbit Alexa Fluor 488 antibody (Molecular Probes, Invitrogen Limited, Catalogue No. A11008) diluted 1:750 in blocking buffer. Plates were washed three times in 250 μl of wash buffer and stored containing 50 μl of PBS at 4° C. until required.
Plates were analysed using an Acumen Explorer Plate-reader to quantify level of fluorescent signal that represents quantity of phosphorylated-GSK-313.
IC50 calculation—IC50 is the concentration of compound required to give 50% effect over the range of activity affected by the compound, between maximum (no compound) and minimum (excess level of compound) response control data. IC50 values were determined by fitting background corrected, dose response assay data to a 4 parameter logistic curve fit equation model with the minimum response set to zero. This was done using an in-house developed algorithm within the Origin graphing software package (OriginLab Corporation, Northampton, Mass., USA). […]

| SMILES | IC50 |
| --- | --- |
| NCC1(c2nc3cc(Cl)ccc3[nH]2)CCN(c2ncnc3[nH]ccc23)CC1 [Example 67B, (4-(5-chloro-1H-benzo[d]imidazol-2-yl)-1-(7H-pyrrolo[2,3-d]pyrimidin-4-yl)piperidin-4-yl)methanamine] | 62 nM |
| NC1(c2nc3cc(Br)ccc3[nH]2)CCN(c2ncnc3[nH]ccc23)CC1 [Example 68B, 4-(5-bromo-1H-benzo[d]imidazol-2-yl)-1-(7H-pyrrolo[2,3-d]pyrimidin-4-yl)piperidin-4-amine] | 460 nM |
| NC1(c2nc3cc(-c4ccccc4)ccc3[nH]2)CCN(c2ncnc3[nH]ccc23)CC1 [Example 68D, 4-(5-phenyl-1H-benzo[d]imidazol-2-yl)-1-(7H-pyrrolo[2,3-d]pyrimidin-4-yl)piperidin-4-amine] | 2400 nM |
| NC1(c2nc3cc(-c4ccoc4)ccc3[nH]2)CCN(c2ncnc3[nH]ccc23)CC1 [Example 69, 4-(5-furan-3-yl-1H-benzimidazol-2-yl)-1-(7H-pyrrolo[2,3-d]pyrimidin-4-yl)piperidin-4-amine] | 1600 nM |
| NC1(c2nc3cc(-c4ccncc4)ccc3[nH]2)CCN(c2ncnc3[nH]ccc23)CC1 [Example 70, 4-(5-pyridin-4-yl-1H-benzimidazol-2-yl)-1-(7H-pyrrolo[2,3-d]pyrimidin-4-yl)piperidin-4-amine] | 1600 nM |
| COc1ccccc1-c1ccc2[nH]c(C3(N)CCN(c4ncnc5[nH]ccc45)CC3)nc2c1 [Example 71, 4-[5-(2-methoxyphenyl)-1H-benzimidazol-2-yl]-1-(7H-pyrrolo[2,3-d]pyrimidin-4-yl)piperidin-4-amine] | 2500 nM |
| NC1(c2nc3cc(-c4ccco4)ccc3[nH]2)CCN(c2ncnc3[nH]ccc23)CC1 [Example 72] | 3000 nM |
| COc1ccc(-c2ccc3[nH]c(C4(N)CCN(c5ncnc6[nH]ccc56)CC4)nc3c2)cc1 [Example 73, 4-[5-(4-methoxyphenyl)-1H-benzimidazol-2-yl]-1-(7H-pyrrolo[2,3-d]pyrimidin-4-yl)piperidin-4-amine] | 3300 nM |
| Cn1cc(-c2ccc3[nH]c(C4(N)CCN(c5ncnc6[nH]ccc56)CC4)nc3c2)cn1 [Example 74, 4-[5-(1-methylpyrazol-4-yl)-1H-benzimidazol-2-yl]-1-(7H-pyrrolo[2,3-d]pyrimidin-4-yl)piperidin-4-amine] | 3700 nM |
| CS(=O)(=O)c1cccc(-c2ccc3[nH]c(C4(N)CCN(c5ncnc6[nH]ccc56)CC4)nc3c2)c1 [Example 75, 4-[5-(3-methylsulfonylphenyl)-1H-benzimidazol-2-yl]-1-(7H-pyrrolo[2,3-d]pyrimidin-4-yl)piperidin-4-amine] | 5100 nM |
| COc1cccc(-c2ccc3[nH]c(C4(N)CCN(c5ncnc6[nH]ccc56)CC4)nc3c2)c1 [Example 76, 4-[5-(3-methoxyphenyl)-1H-benzimidazol-2-yl]-1-(7H-pyrrolo[2,3-d]pyrimidin-4-yl)piperidin-4-amine] | 6400 nM |
| NC1(c2nc3cc(-c4cccnc4)ccc3[nH]2)CCN(c2ncnc3[nH]ccc23)CC1 [Example 77, 4-(5-pyridin-3-yl-1H-benzimidazol-2-yl)-1-(7H-pyrrolo[2,3-d]pyrimidin-4-yl)piperidin-4-amine] | 12000 nM |
| CS(=O)(=O)c1ccc(-c2ccc3[nH]c(C4(N)CCN(c5ncnc6[nH]ccc56)CC4)nc3c2)cc1 [Example 78, 4-[5-(4-methylsulfonylphenyl)-1H-benzimidazol-2-yl]-1-(7H-pyrrolo[2,3-d]pyrimidin-4-yl)piperidin-4-amine] | 16000 nM |
| NC1(c2nc3c(-c4cccnc4)cccc3[nH]2)CCN(c2ncnc3[nH]ccc23)CC1 [Example 79] | 85 nM |
| COc1ccccc1-c1cccc2[nH]c(C3(N)CCN(c4ncnc5[nH]ccc45)CC3)nc12 [Example 80, 4-[4-(2-methoxyphenyl)-1H-benzimidazol-2-yl]-1-(7H-pyrrolo[2,3-d]pyrimidin-4-yl)piperidin-4-amine] | 64 nM |
| COc1cccc(-c2cccc3[nH]c(C4(N)CCN(c5ncnc6[nH]ccc56)CC4)nc23)c1 [Example 81, -[4-(3-methoxyphenyl)-1H-benzimidazol-2-yl]-1-(7H-pyrrolo[2,3-d]pyrimidin-4-yl)piperidin-4-amine] | 140 nM |
| COc1ccc(-c2cccc3[nH]c(C4(N)CCN(c5ncnc6[nH]ccc56)CC4)nc23)cc1 [Example 82, -[4-(4-methoxyphenyl)-1H-benzimidazol-2-yl]-1-(7H-pyrrolo[2,3-d]pyrimidin-4-yl)piperidin-4-amine] | 120 nM |
| CS(=O)(=O)c1ccc(-c2cccc3[nH]c(C4(N)CCN(c5ncnc6[nH]ccc56)CC4)nc23)cc1 [Example 83, 4-{4-[4-(methylsulfonyl)phenyl]-1H-benzimidazol-2-yl}-1-(7H-pyrrolo[2,3-d]pyrimidin-4-yl)piperidin-4-amine] | 47 nM |
| NC1(c2nc3c(Br)cccc3[nH]2)CCN(c2ncnc3[nH]ccc23)CC1 [Example 85, 4-(7-Bromo-1H-benzo[d]imidazol-2-yl)-1-(7H-pyrrolo[2,3-d]pyrimidin-4-yl)piperidin-4-amine] | 350 nM |
| Cn1cc(-c2cccc3[nH]c(C4(N)CCN(c5ncnc6[nH]ccc56)CC4)nc23)cn1 [Example 86, 4-(4-(1-Methyl-1H-pyrazol-4-yl)-1H-benzo[d]imidazol-2-yl)-1-(7H-pyrrolo[2,3-d]pyrimidin-4-yl)piperidin-4-amine] | 130 nM |
| NC1(c2nc3c(-c4ccco4)cccc3[nH]2)CCN(c2ncnc3[nH]ccc23)CC1 [Example 87, 4-[7-(2-furyl)-1H-benzimidazol-2-yl]-1-(7H-pyrrolo[2,3-d]pyrimidin-4-yl)piperidin-4-amine] | 220 nM |
| NC1(c2nc3c(-c4ccoc4)cccc3[nH]2)CCN(c2ncnc3[nH]ccc23)CC1 [Example 88, 4-[7-(3-furyl)-1H-benzimidazol-2-yl]-1-(7H-pyrrolo[2,3-d]pyrimidin-4-yl)piperidin-4-amine] | 52 nM |
| NCC1(c2nc3cc(Br)ccc3[nH]2)CCN(c2ncnc3[nH]ccc23)CC1 [Example 89E, (4-(5-Bromo-1H-benzo[d]imidazol-2-yl)-1-(7H-pyrrolo[2,3-d]pyrimidin-4-yl)piperidin-4-yl)methanamine] | 81 nM |
| NC1(c2nc3c(-c4cncnc4)cccc3[nH]2)CCN(c2ncnc3[nH]ccc23)CC1 [Example 91, 4-(4-pyrimidin-5-yl-1H-benzimidazol-2-yl)-1-(7H-pyrrolo[3,2-e]pyrimidin-4-yl)piperidin-4-amine] | 52 nM |
| NC1(c2nc3c(-c4ccncc4)cccc3[nH]2)CCN(c2ncnc3[nH]ccc23)CC1 [Example 92, 4-(4-pyridin-4-yl-1H-benzimidazol-2-yl)-1-(7H-pyrrolo[3,2-e]pyrimidin-4-yl)piperidin-4-amine] | 33 nM |
| NC1(c2nc3c(-c4cn[nH]c4)cccc3[nH]2)CCN(c2ncnc3[nH]ccc23)CC1 [Example 93, 4-[4-(1H-pyrazol-4-yl)-1H-benzimidazol-2-yl]-1-(7H-pyrrolo[3,2-e]pyrimidin-4-yl)piperidin-4-amine] | 250 nM |
| NC1(c2nc3c(-c4cccc(S(N)(=O)=O)c4)cccc3[nH]2)CCN(c2ncnc3[nH]ccc23)CC1 [Example 94, 3-[2-[4-amino-1-(7H-pyrrolo[3,2-e]pyrimidin-4-yl)piperidin-4-yl]-1H-benzimidazol-4-yl]benzenesulfonamide] | 47 nM |
